# Laboratory results from publication PMC8524858, “Dual inhibition of αvβ6 and αvβ1 reduces fibrogenesis in lung tissue explants from patients with IPF” (Respiratory Research, 2021).
# Legend:
# [1] = tested on: normal human lung fibroblast adhesion to LAP; experiment: Primary cell LAP adhesion assay (cell impedance), normal HLF; type: cell-based; settings: HLFs isolated from normal lung tissue, read-out: IC50 for blocking adhesion to LAP
# Experimental: Adhesion of primary human lung cells to LAP was quantified using the xCELLigence RTCA MP instrument (ACEA Biosciences; San Diego, CA, USA) via cell impedance measurements similar to that previously described.
# Adhesion assays were performed using the xCELLigence RTCA MP instrument (ACEA Biosciences; San Diego, CA, USA) on 96-well PET plates (ACEA Biosciences; 300600910) via a cell impedance measurement similar to one previously described (E6). Plates were coated with LAP (Sino Biological; 10804-H08H1) overnight at 4 °C and blocked with BSA for 2 h at 37 °C. NHLF (40,000 cells/well), dHLF (40,000 cells/well), or NHBE (20,000 cells per well) in FBS-free media were combined with small-molecule integrin inhibitors or antibodies in the plates and incubated at 37 °C with 5% CO2. […] Anti-αv antibody, 17E6, and anti-β1 antibody, P5D2, were tested at a single concentration (10 μg/ml). Cell impedance (cell index) was measured at baseline and every 3 min for up to 24 h using xCELLigence RTCA 2.1.0 Software (ACEA Biosciences). […] Geometric mean IC50 was calculated for each compound following repeat analyses of multiple donor cells.
# [2] = tested on: bleomycin-challenged C57BL/6 mice; experiment: In vivo bleomycin mouse model of pulmonary fibrosis; settings: Day 7 to Day 21 after bleomycin
# Experimental: C57BL/6 mice (Charles River; Hollister, CA, USA) were administered 3 units/kg bleomycin (Teva; Toronto, ON, Canada) or vehicle (water) via oropharyngeal aspiration. Lung tissue and bronchioalveolar lavage (BAL) cells were collected after 14 or 21 days to evaluate Smad phosphorylation and collagen deposition.
# OHP levels and fractional synthesis rates were determined similar to that previously described.
# Formalin-fixed, paraffin-embedded mouse lung tissue sections underwent SHG imaging to characterize the quantity and quality of fibrillar collagen deposition using methods similar to that previously described.
# For pSmad3 and total Smad3 quantitation, lung tissues or bronchoalveolar lavage (BAL) cells were lysed in RIPA buffer with protease inhibitor cocktail (Thermo Fisher; #78442). Total protein concentration was normalized across lysates following quantitation by bicinchoninic acid protein assay (Thermo Fisher; #23225). MSD GOLD 96 Small Spot Streptavidin plates were rinsed with PBST, followed by incubation with 1 µg/ml of biotinylated anti-Smad2/3 antibody under agitation for 1 h. Following a second rinse, a 50:50 mix of unknown sample and PBST was added to duplicate wells. Following a 1 h incubation and another rinse, 1 µg/ml of sulfo-tag-labeled anti-pSmad3 or anti-Smad3 antibody was added and incubated for 1 h under agitation. After a final rinse, 1x read buffer was added and the plate was read using an MSD sector imager instrument (SECTOR S 600). pSmad3/Smad3 signal ratios were compared across time points to calculate fold changes.
# Male, 8-week-old C57BL/6 mice (Charles River; Hollister, CA, USA) were administered 3 U/kg bleomycin (Teva) or vehicle (water) via oropharyngeal aspiration while under anesthesia (ketamine/xylazine). […] Total lung weights were recorded, and right lobes were snap-frozen and stored at -80 °C. […]
# OHP levels in mouse lung tissue were determined similar to that previously described (E15) using the QuickZyme hydroxyproline assay kit (QuickZyme Biosciences; Leiden, Netherlands). […] Hydrolysate was adjusted to 4 M HCl and analyzed for OHP concentrations in a 96-well format, according to manufacturer’s instruction. Absorbance was read at 570 nm with an Infinite M200 PRO microtiter plate reader (Tecan; Crailsheim, Germany) and total lung OHP levels calculated from OHP concentrations (µg OHP/mg tissue) by normalizing to total lung weight. […]
# Formalin-fixed paraffin embedded sections prepared from mouse lung tissue underwent SHG imaging to characterize both the quantity and quality of fibrillar collagen deposition using methods similar to that previously described (E16). […]
smiles,measurement,setting,value
COCCN(CCCCc1ccc2c(n1)NCCC2)CC[C@H](Nc1ncnc2ccccc12)C(=O)O [PLN-74809],IC50,[1],15.7 nM
same,Smad3 phosphorylation in lung tissue,"[2]; oral 100, 250, 500 mg/kg BID",dose-dependently blocked
same,interstitial fibrillar collagen deposition (SHG imaging),"[2]; oral 100, 250, 500 mg/kg BID, vs vehicle","dose-dependent, significant reduction"
same,total pulmonary hydroxyproline levels,"[2]; oral 100-500 mg/kg BID, vs vehicle (Fig. S3A)",dose-dependently reduced
same,hydroxyproline deposition rate (2H incorporation),"[2]; oral 100-500 mg/kg BID, vs vehicle (Fig. S3B)",dose-dependently reduced
